Assay results published in patent US7696234B2, “Histamine H3 receptor agents, preparation and therapeutic uses” (Eli Lilly and Company, priority 2004, dated 2010).

Molecular target: T1, H3R membranes (human histamine 3 receptor) (Homo sapiens, UniProt Q9Y5N1)
T1 construct: expressed in transfected cells; pcDNA3.1(+) vector, G418 selection)
Experiment: [35S] GTP γ [S] Binding Assay
Format: biochemical
Settings: inhibition of [35S]GTPγS binding to membranes from H3R8-expressing HEK293 cells in the presence of agonist R(−)alpha methylhistamine
Protocol: Membranes isolated as described in (Preparation of Histamine Receptor Subtype Membranes) were used in a [35S]GTPχS functional assay. Binding of [35S]GTPχS to membranes indicates agonist activity. Compounds of the invention of Formula I were tested for their ability to inhibit binding in the presence of agonists. Alternately, the same transfected cell lines were used for a cAMP assay wherein H3R agonists inhibited forskolin-activated synthesis of cAMP. Compounds of Formula I were tested for their ability to permit forskolin-stimulated cAMP synthesis in the presence of agonist. cDNA for the human histamine 3 receptor was cloned and expressed as described in (A. Preparation H1R membranes), above. Transfected cells were selected using G418 ([…]), grown, and tested for histamine binding by the SPA described above. For total binding, cells were assayed in a SPA reaction described above containing 50 mM Tris-HCL (assay buffer), pH 7.6, 1 mg wheat germ agglutinin SPA beads (Amersham Pharmacia Biotech, #RPNQ0001), and 1 nM (^3H)-n-alpha-methylhistamine (NEN, NET1027) (total volume per well=200 μl). Thioperimide was added to determine non-specific binding. Several clones were selected as positive for binding, and a single clone (H3R8) was used to prepare membranes for binding studies described above. […] Plates were counted in Wallac Trilux 1450 Microbeta scintillation counter for 1 minute. […]

T1 sequence (Q9Y5N1 whole entry): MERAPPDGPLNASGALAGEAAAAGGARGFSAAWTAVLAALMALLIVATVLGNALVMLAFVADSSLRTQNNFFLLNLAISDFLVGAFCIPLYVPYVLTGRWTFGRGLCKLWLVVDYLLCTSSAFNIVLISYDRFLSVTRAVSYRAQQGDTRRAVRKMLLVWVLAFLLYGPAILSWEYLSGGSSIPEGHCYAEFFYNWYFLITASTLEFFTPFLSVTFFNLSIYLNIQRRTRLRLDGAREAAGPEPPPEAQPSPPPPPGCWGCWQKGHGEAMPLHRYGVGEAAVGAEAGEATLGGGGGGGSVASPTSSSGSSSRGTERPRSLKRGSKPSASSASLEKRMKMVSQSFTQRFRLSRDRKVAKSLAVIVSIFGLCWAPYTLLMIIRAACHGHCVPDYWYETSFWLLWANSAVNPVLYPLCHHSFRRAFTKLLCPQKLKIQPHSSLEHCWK

| Ki | SMILES |
| --- | --- |
| 19 nM | COc1ccc(COc2ccc(C(=O)N3CCC[C@H]3CN3CCCC3)cc2)cc1 |
| 4.1 nM | O=C(c1ccc(OCc2cnccn2)cc1)N1CCC[C@H]1CN1CCCC1 |
